From ChEMBL document CHEMBL5608234, “Heat Shock Protein 90 Interactome-Mediated Proteolysis Targeting Chimera (HIM-PROTAC) Degrading Glutathione Peroxidase 4 to Trigger Ferroptosis” (J Med Chem, 2024)
Active and inactive are the calls of the source. No cut-off for these calls is given here.

How the values were obtained:
[1] = system: HT-1080; test: HIM-PROTAC activity at GPX4/HSP90/E3 ligase in human HT-1080 cells assessed as reduction in GPX4 level at 0.1 to 3 uM incubated for 24 hrs by Western blotting analysis; type: cell-based; details: dose 0.1-3 µM
[2] = HIM-PROTAC activity at GPX4/HSP90/E3 ligase in human HT-1080 cells assessed as reduction in GPX4 level incubated for 24 hrs by Western blotting analysis; type: cell-based; details: HT-1080, 24 h
[3] = system: 4T1; test: HIM-PROTAC activity at GPX4/HSP90/E3 ligase in […] cells assessed as reduction in GPX4 level at 0.1 to 3 uM incubated for 24 hrs by Western blotting analysis; type: cell-based; details: dose 0.1-3 µM
[4] = system: B16-F10; test: HIM-PROTAC activity at GPX4/HSP90/E3 ligase in mouse B16-F10 cells assessed as reduction in GPX4 level at 0.1 to 3 uM incubated for 24 hrs by Western blotting analysis; type: cell-based; details: dose 0.1-3 µM
[5] = system: HT-1080; test: HIM-PROTAC activity at GPX4/HSP90/E3 ligase in human HT-1080 cells assessed as reduction in GPX4 level at 1 uM incubated for 24 hrs by Western blotting analysis; type: cell-based; set-up: scale not given: the % may be the effect or the level left
[6] = system: HT-1080; test: Downregulation of GPX4 protein level in human HT-1080 cells at 1 uM incubated for 24 hrs by proteomics analysis; type: functional, cell-based
[7] = system: HT-1080; test: Induction of ferroptosis in human HT-1080 cells assessed as increase in HMOX1 protein level after 24 hrs by Western blotting analysis; type: functional, cell-based; details: dose 0.1-3 µM
[8] = system: HT-1080; test: HIM-PROTAC activity at GPX4/HSP90/E3 ligase in human HT-1080 cells assessed as reduction in GPX4 level at 1 uM preincubated with MG132 for 2 hrs followed by compound addition and measured after 24 hrs by Western blotting analysis; type: cell-based
[9] = system: HT-1080; test: HIM-PROTAC activity at GPX4/HSP90/E3 ligase in human HT-1080 cells assessed as reduction in GPX4 level at 1 uM preincubated with 6-chloro-9-((4-methoxy-3,5-dimethylpyridin-2-yl)methyl)-9H-purin-2-amine for 2 hrs followed by compound addition and measured after 24 hrs by Western blotting analysis; type: cell-based
[10] = system: HT-1080; test: HIM-PROTAC activity at GPX4/HSP90/E3 ligase in human HT-1080 cells assessed as reduction in GPX4 level at 1 uM preincubated with 2-chloro-N-(3-chloro-4-methoxyphenyl)-N-(2-oxo-2-(phenethylamino)-1-(thiophen-2-yl)ethyl)acetamide for 2 hrs followed by compound addition and measured after 24 hrs by Western blotting analysis; type: cell-based
[11] = biological target: Heat shock protein HSP 90-alpha (Homo sapiens, UniProt P07900); test: Binding affinity to recombinant human HSP90alpha by SPR assay
[12] = system: HT-1080; test: HIM-PROTAC activity at GPX4/HSP90/E3 ligase in HSP90-knockdown human HT-1080 cells assessed as GPX4 degradation at 0.3 to 1 uM incubated for 24 hrs by Western blotting analysis; type: cell-based; details: dose 0.3-1 µM
[13] = system: HT-1080; test: Induction of HSP90/GPX4 protein protein interaction in human HT-1080 cells assessed as ternary complex formation at 5 uM incubated for 12 hrs by co-immunoprecipitation method; type: cell-based; details: filed as activator
[14] = system: HT-1080; test: Cytotoxicity against human HT-1080 cells incubated for 48 hrs by CCK-8 assay; type: functional, cell-based; details: HT-1080, 48 h
[15] = system: HT-1080; test: Induction of ferroptosis in human HT-1080 cells assessed as fold increase in cytotoxic IC50 incubated for 48 hrs in presence of Fer-1 by CCK-8 assay; type: functional
[16] = system: HT-1080; test: Induction of ferroptosis in human HT-1080 cells assessed as increase in lipid peroxidation by measuring fluorescence intensity incubated for 12 hrs by C11-BODIPSY 581/591 staining based flow cytometry analysis; type: functional, cell-based; details: dose 0.1-3 µM
[17] = system: HT-1080; test: Induction of ferroptosis in human HT-1080 cells assessed as increase in ROS level at 1 uM incubated for 24 hrs by DCFH-DA staining based confocal laser scanning microscopic analysis; type: functional, cell-based
[18] = system: HT-1080; test: Induction of ferroptosis in human HT-1080 cells assessed as increase in Fe2+ level at 1 uM incubated for 24 hrs by FerroOrange staining based confocal laser scanning microscopic analysis; type: functional, cell-based
[19] = system: HT-1080; test: Induction of ferroptosis in human HT-1080 cells assessed as mitochondrial swelling at 1 uM incubated for 24 hrs by TEM analysis; type: functional, cell-based
[20] = system: HT-1080; test: Induction of ferroptosis in human HT-1080 cells assessed as reduction in mitochondrial crests at 1 uM incubated for 24 hrs by TEM analysis; type: functional, cell-based
[21] = system: HT-1080; test: Induction of ferroptosis in human HT-1080 cells assessed as broken mitochondrial outer membrane at 1 uM incubated for 24 hrs by TEM analysis; type: functional, cell-based
[22] = system: HT-1080; test: Induction of ferroptosis in human HT-1080 cells assessed as appearance of autophagosome-like structures at 1 uM incubated for 24 hrs by TEM analysis; type: functional, cell-based
[23] = Tmax in ICR mouse at 25 mg/kg, ip measured upto 24 hrs by LC-MS/MS analysis; type: ADME, organism-based; details: in vivo
[24] = Cmax in ICR mouse at 25 mg/kg, ip measured upto 24 hrs by LC-MS/MS analysis; type: ADME, organism-based; details: in vivo
[25] = system: HT-1080; test: Antitumor activity against human HT-1080 cells xenografted in ip dosed BALB/c mouse assessed as tumor growth suppression administered once daily; type: functional, organism-based; details: dose 25-50 mg/kg
[26] = Toxicity in BALB/c mouse xenografted with human HT-1080 cells assessed as reduction in body weight at 25 to 50 mg/kg, ip administered once daily; type: organism-based; details: in vivo, dose 25-50 mg/kg
[27] = Toxicity in BALB/c mouse xenografted with human HT-1080 cells assessed as change in heart morphology at 25 to 50 mg/kg, ip administered once daily by H and E staining based assay; type: organism-based; details: in vivo, dose 25-50 mg/kg
[28] = Toxicity in BALB/c mouse xenografted with human HT-1080 cells assessed as change in spleen morphology at 25 to 50 mg/kg, ip administered once daily by H and E staining based assay; type: organism-based; details: in vivo, dose 25-50 mg/kg
[29] = Toxicity in BALB/c mouse xenografted with human HT-1080 cells assessed as change in lung morphology at 25 to 50 mg/kg, ip administered once daily by H and E staining based assay; type: organism-based; details: in vivo, dose 25-50 mg/kg
[30] = Toxicity in BALB/c mouse xenografted with human HT-1080 cells assessed as change in kidney morphology at 25 to 50 mg/kg, ip administered once daily by H and E staining based assay; type: organism-based; details: in vivo, dose 25-50 mg/kg
[31] = system: Mus musculus; test: Downregulation of GPX4 level in ip dosed BALB/c mouse xenografted with human HT-1080 cells administered once daily by immunohistochemistry analysis; type: functional, organism-based; details: dose 25-50 mg/kg
[32] = system: Mus musculus; test: Effect on HSP90 level in BALB/c mouse xenografted with human HT-1080 cells at 25 to 50 mg/kg, ip administered once daily by immunohistochemistry analysis; type: functional, organism-based; details: dose 25-50 mg/kg
[33] = system: Mus musculus; test: Upregulation of 4-HNE protein level in BALB/c mouse tumor xenografted with human HT-1080 cells at 50 to 100 mg/kg, ip measured upto 36 hrs; type: functional, organism-based; details: dose 50-100 mg/kg

In the case of `COc1c(C)cnc(Cn2cnc3c(NCCOCCOCCOCCn4cc(COc5ccc(N(C(=O)CCl)C(C(=O)NCCc6ccccc6)c6cccs6)cc5Cl)nn4)nc(N)nc32)c1C` (stereo unspecified), the Activity [1] is reported as “Active”, the DC50 [2] is reported as 180 nM and the Activity [3] is reported as “Active”. The Activity [4] was “Active”, the Activity [5] was 100% and the Activity [6] was “Active”. The Activity [7] was “Dose-Dependent Effect”, the Activity [8] was “inactive” and the Activity [9] was “inactive”. The Activity [10] was “inactive”, the Kd [11] was 2770 nM and the Activity [12] was “inactive”. For the same compound, the Activity [13] was “Active”, the IC50 [14] was 1300 nM and the “fold change (FC)” value [15] was 2. The Activity [16] was “Dose-Dependent Effect”, the Activity [17] was “Active” and the Activity [18] was “Active”. For the same compound, the Activity [19] was “Active”, the Activity [20] was “Active” and the Activity [21] was “Active”. The Activity [22] was “Active”, the Tmax [23] was 2 h and the Cmax [24] was 139 ng/mL. The Activity [25] was “Dose-Dependent Effect”, the Activity [26] was “Toxic” and the Activity [27] was “Non-Toxic”. The Activity [28] was “Non-Toxic”, the Activity [29] was “Non-Toxic” and the Activity [30] was “Non-Toxic”. The Activity [31] was “Dose-Dependent Effect”, the Activity [32] was “inactive” and the Activity [33] was “Active”.
For `COc1c(C)cnc(Cn2cnc3c(NCCC4CCN(C(=O)Cn5cc(COc6ccc(N(C(=O)CCl)C(C(=O)NCCc7ccccc7)c7cccs7)cc6Cl)nn5)CC4)nc(N)nc32)c1C` (stereo unspecified), the Activity [1] was “Active”, the DC50 [2] was 80 nM and the Activity [3] was “Active”. The Activity [4] was “Active”, the Activity [5] was 100% and the Activity [6] was “Active”. For the same compound, the Activity [7] was “Dose-Dependent Effect”, the Activity [8] was “inactive” and the Activity [9] was “inactive”. The Activity [10] was “inactive”, the Kd [11] was 190 nM and the Activity [12] was “inactive”. The Activity [13] was “Active”, the IC50 [14] was 740 nM and the “fold change (FC)” value [15] was 45. The Activity [16] was “Dose-Dependent Effect”, the Activity [17] was “Active” and the Activity [18] was “Active”. For the same compound, the Activity [19] was “Active”, the Activity [20] was “Active” and the Activity [21] was “Active”. The Activity [22] was “Active”, the Tmax [23] was 2 h and the Cmax [24] was 53.1 ng/mL. The Activity [25] was “Dose-Dependent Effect”, the Activity [26] was “Toxic” and the Activity [27] was “Non-Toxic”. For the same compound, the Activity [28] was “Non-Toxic”, the Activity [29] was “Non-Toxic” and the Activity [30] was “Non-Toxic”. The Activity [31] was “Dose-Dependent Effect”, the Activity [32] was “inactive” and the Activity [33] was “Active”.
